# Data published in ChEMBL document CHEMBL1121659 (J Med Chem, 1981).
# Calls of active or inactive are those of the source. No cut-off for these calls is given here.
# Experiments:
# Mus musculus [1] = assay: Compound was evaluated for the dose required for protection against scMET-induced seizures after 4 hours of intraperitoneal administration; Inactive; format: functional, organism-based
# Mus musculus [2] = assay: Compound was evaluated for the neuro toxicity up to 4 hours after doses of <=300 mg/kg administered intraperitoneally; No toxicity; format: organism-based; settings: in vivo, ip
# Mus musculus [3] = assay: Compound was evaluated for the dose required for protection against MES-induced seizures after 4 hours of intraperitoneal administration; Inactive; format: functional, organism-based
smiles,measurement,setting,value
Cc1cccc(C2(c3ccc(C(F)(F)F)cc3)NC(=O)NC2=O)c1 (stereo not drawn),Activity,Mus musculus [1],inactive
same,Neurotoxicity,Mus musculus [2],No toxicity
same,Activity,Mus musculus [3],inactive
